According to article PMC5949603, “Bridged bicyclic peptides as potential drug scaffolds: synthesis, structure, protein binding and stability” (Chemical Science, 2015):
Where a SMILES comes first, the peptide text is derived from it. Bridges are numbered along the chain shown (N, C = ends). [ ]: non-standard residue; d: D form.

Key:
CALM1 (calmodulin) [1] = molecular target: T1, CALM1 (calmodulin) (Homo sapiens, UniProt P0DP23); assay: Capture compound mass spectrometry (CCMS) proteome profiling in HeLa cell lysate; type: binding; set-up: endogenous in cells; host or cells: HeLa cell lysate; conditions: probe 5 μM, competitor 240 μM, enrichment >2-fold, triplicate
Protocol: Capture experiments were carried out in PCR strips according to the general CCMS procedure.[48] 400 μg of HeLa cell lysate at 10 μg μL^–1 was pipetted for each set in triplicate. To the competition samples, 240 μM of BBP-competitor was added as a final concentration and incubated for 30 min at 4 °C. Assay and competition samples were then incubated with BBP-capture compounds or BBP-scaffold controls at a final concentration of 5 μM for 1 hour at 4 °C on a rotating axis and irradiated for 10 min at 310 nm in a caproBox™ (caprotec bioanalytics GmbH) to promote covalent cross-linking. Streptavidin-coated magnetic beads (Invitrogen) were added to the samples and further rotated for 1 hour at 4 °C. The beads were collected using a caproMag (caprotec bioanalytics GmbH) and washed 4 times with washing buffer (caprotec bionanalytics GmbH) followed by 3 times washing with 80% acetonitrile and lastly resuspended in MS-grade water. For tryptic digestion, the magnetic beads were incubated with trypsin in 50 mM ammonium bicarbonate for 16 hours at 37 °C. The supernatant was recovered, evaporated and stored at –20 °C until mass spectrometry analysis.
Mass Spectrometry: Tryptic digests were analyzed by online nanoflow liquid chromatography tandem MS (LC-MSn) on an UltiMate 3000 RSLCnano System (Dionex, part of Thermo Fisher Scientific, Germany) coupled to a LTQ-Orbitrap Velos instrument (Thermo Fisher Scientific, Germany) through a Proxeon nanoelectrospray ion source (Proxeon, part of Thermo Fisher Scientific, Germany). For chromatographic separation samples were first loaded on a reversed phase (RP) precolumn (Acclaim PepMap100, 5 μm, 100 Å, 100 μm i.d. × 20 mm) and separated on a RP analytical column (Acclaim PepMap RSLC C18, 2 μm, 100 Å, 75 μm i.d. × 150 mm, Dionex, part of Thermo Fisher Scientific, Germany) performing a 96 min gradient (5–45 % acetonitrile, 0.1% formic acid). MS detection was performed in the data-dependent mode allowing to automatically switch between Orbitrap-MS and LTQ-MS/MS acquisition in a top 20 configuration at 60 K resolution for a full scan with subsequent collision induced dissociation (CID) fragmentation. Full scan MS spectra (from m/z 300–2000) were acquired in the Orbitrap analyzer after accumulation to a target value of 1 × 10^6 in the linear ion trap. The most intense ions (up to twenty, depending on signal intensity) with charge state ≥2 were sequentially isolated at a target value of 5000 and fragmented in the linear ion trap using low energy CID with normalized collision energy of 35%. […] All MS/MS data were analyzed using Andromeda implemented in MaxQuant.[33] […] The label free quantification option was selected with a maximal retention time window of 2 min for the alignment between LC-MS/MS runs.

[2] = Water solubility (stated in words); type: physicochemical
[3] = Human serum stability assay; type: in vitro ADME; conditions: 24 h, 37 °C, 200 μM peptide
Protocol: Human serum was diluted 1 : 4 in DMEM. Selected peptide was diluted in TRIS buffer to a concentration of 400 μM. Aliquots of peptide solution (50 μL) were added to aliquots of serum (50 μL) in sterile Eppendorf tubes, to reach a peptide concentration of 200 μM during the assay. Samples were incubated at 37 celsius degree under gentle stirring (350 rpm). Different samples (triplicate) were quenched at different time points (0/1/3/6/24 h) by precipitating serum proteins through the addition of ZnSO4·7H2O (0.1 M, 100 μL) and cooling down in ice bath. Protein precipitates were pelleted under centrifugation and the supernatants were sampled and evaporated to dryness in a centrifugal evaporator. Samples were resuspended in a H2O/ACN (4 : 1) mixture and centrifuged again to remove residual protein precipitate. Supernatants were then sampled and analysed by LC-MS. Experiment controls included a precipitation control for each peptide, to test their resistance to the protein precipitation conditions, and serum blanks, to check reproducibility over different serum batches. Two peaks originating from DMEM, surviving the incubation in serum and the protein precipitation conditions were used as internal standard.

Human calmodulin (CALM1) = molecular target: T2, Human calmodulin (CALM1) (Homo sapiens, UniProt P0DP23); assay: MicroScale Thermophoresis (MST) binding to fluorescently labeled calmodulin; conditions: 10 nM labeled calmodulin, 25 °C
T2 construct: purchased Enzo Life Sciences, Lausen, Switzerland
Protocol: Human calmodulin (Enzo Life Sciences, Lausen, Switzerland) was labeled using the RED-NHS Labeling kit (NanoTemper Technologies). The labeling reaction was performed according to the manufacturer's instructions in the supplied labeling buffer applying a concentration of 20 μM protein (molar dye : protein ratio ≈ 2 : 1) at RT for 30 min. Unreacted dye was removed with the supplied dye removal columns equilibrated with MST buffer (50 mM TrisHCl pH 7.5, 150 mM NaCl, 10 mM MgCl2). The label : protein ratio was determined using photometry at 650 and 280 nm. Thereby, a ratio of 0.8 was typically achieved. The labeled calmodulin was adjusted to 20 nM with MST buffer. […]
For thermophoresis, each ligand dilution was mixed with one volume of labeled calmodulin, which leads to a final concentration of fluorescently labeled calmodulin of 10 nM and final ligand concentrations ranging from 15.3 nM to 250 μM. […] Thermophoresis was measured using a Monolith NT.115 instrument (NanoTemper Technologies GmbH) at an ambient temperature of 25 °C with 5 s/30 s/5 s laser off/on/off times, respectively. […] Data of three independently pipetted measurements were analyzed (NT.Analysis software version 1.5.41, NanoTemper Technologies) using the signal from Thermophoresis + T-Jump. […]

CALM1 (calmodulin) [4] = molecular target: T1, CALM1 (calmodulin); assay: Isothermal titration calorimetry (ITC) with calmodulin; conditions: 50 μM calmodulin in water, 25 °C, pH 6.5, read-out: KD (binding affinity to calmodulin by isothermal titration calorimetry)
Protocol: ITC experiments were performed using a MicroCal ITC200 from GE Healthcare. 27c and 28c were dissolved in water to a concentration of 0.7 and 0.6 mM, respectively. Calmodulin was dissolved in water at 50 μM. Optionally CaCl2 (final concentration 500 μM) or EDTA (final concentration 1 mM) were added. The peptide solution was injected into the calmodulin solution (2.5 μL of peptide per injection at an interval of 180 s, a total of 15 injections into the cell volume of 200 μL, with stirring speed of 800 rpm, at 25 °C). […] The experimental data were fitted to a theoretical titration curve (“one set of sites” model) using software supplied by Microcal, with n (number of binding sites per monomer), ΔH (binding enthalpy, kcal mol^–1) and Ka (association constant, M^–1), as adjustable parameters. Thermodynamic parameters were calculated from the Gibbs free energy equation, ΔG = ΔH – TΔS = –RT ln Ka, where ΔG, ΔH, and ΔS are the changes in free energy, enthalpy, and entropy of binding, respectively. T is the absolute temperature, and R = 1.98 cal mol^–1 K^–1.

Which “CALM1 (calmodulin) identified as target by CCMS” value (“CALM1 (calmodulin) identified” below) (CALM1 (calmodulin) [1]) does the source give for R^2E^1Rfz^2FK^1GFGGK(biot) [28s] here?
The value was “did not indicate this target”.

With `CC(C)C[C@H]1NC(=O)CC[C@@H]2NC(=O)[C@@H]3CCCN3C(=O)[C@@H](Cc3ccccc3)NC(=O)[C@@H](CCCCNC(=O)[C@@H](C)NC2=O)NC(=O)CNC1=O` [compound 1, l^1Gk^2fPE^1a^2] ([dL]G[dK][dF]PE[dA]; lactam 3-C, N-6) as the compound, how does the Water solubility [2] read?
The Water solubility was “water insoluble”.

With `CC(C)C[C@@H]1NC(=O)CC[C@@H]2NC(=O)[C@@H]3CCCN3C(=O)[C@@H](Cc3ccc(O)cc3)NC(=O)[C@@H](CCCCNC(=O)[C@H](C)NC2=O)NC(=O)CNC1=O` [compound 15, L^1Gk^2yPE^1A^2] (LG[dK][dY]PEA; lactam 3-C, N-6) as the compound, how does the “Stability upon incubation in human serum” value [3] read?
The value was “stable”.

With R^2E^1Rfz^2FK^1GBGGK(biot) [28x] as the compound, how does the “CALM1 (calmodulin) identified” value (CALM1 (calmodulin) [1]) read?
Its value is “did not indicate this target”.

Which “CALM1 (calmodulin) identified” value (CALM1 (calmodulin) [1]) does the source give for K^2E^1Kwz^2WK^1GFGGK(biot) [27s] here?
The value was “specifically targeted”.

For K^2E^1Kwz^2WK^1GBGGK(biot) [27x], which “CALM1 (calmodulin) identified” value (CALM1 (calmodulin) [1]) is on record?
The value was “specifically targeted”.

Which results are given for `NCCCC[C@@H]1NC(=O)CSC[C@H]2NC(=O)[C@@H](Cc3c[nH]c4ccccc34)NC(=O)[C@H](CCCCN)NC(=O)[C@H](CCC(=O)NCCCC[C@@H](C(=O)NCC(N)=O)NC(=O)[C@H](Cc3c[nH]c4ccccc34)NC2=O)NC1=O` [27c, K^2E^1Kwz^2WK^1G] ({CH2CO}-KEK[dW][dC]WKG-NH2; lactam 2-7; thioether N-5)?
Kd (Human calmodulin (CALM1); MST buffer pH 7.5, read-out: KD (binding affinity to calmodulin by microscale thermophoresis)): 4.5 ± 1.1 µM; Kd (CALM1 (calmodulin) [4]): 0.8 ± 0.05 µM; Stability upon incubation in human serum [3]: entirely stable

What does the source list for `N=C(N)NCCC[C@@H]1NC(=O)CSC[C@H]2NC(=O)[C@@H](Cc3ccccc3)NC(=O)[C@H](CCCNC(=N)N)NC(=O)[C@H](CCC(=O)NCCCC[C@@H](C(=O)NCC(N)=O)NC(=O)[C@H](Cc3ccccc3)NC2=O)NC1=O` [28c, R^2E^1Rfz^2FK^1G] ({CH2CO}-RER[dF][dC]FKG-NH2; lactam 2-7; thioether N-5)?
KD (binding affinity to calmodulin by microscale thermophoresis) (Human calmodulin (CALM1); MST buffer pH 7.5): no measurable affinity; Kd (CALM1 (calmodulin) [4]): 6.8 ± 0.6 µM
